# Measurements from patent US20170049845A1, “METHODS OF TREATING ALZHEIMER'S DISEASE, HUNTINGTON'S DISEASE, AUTISM, OR OTHER DISORDERS” (Northwestern University, priority 2011, published 2017).
# Residues, ends and D or L forms follow the SMILES beside them.
# How the values were obtained:
# [1] = system: Schaffer collateral-CA1 synapses; assay: hAβ-induced impairment of LTP at Schaffer collateral-CA1 synapses in acute hippocampal slices; assay type: cell-based, rat; details: high-frequency Schaffer collateral stimulation 30 min later
# Text: FIG. 5 depicts rescue of Aβ impairment of long-term potentiation (LTP) of synaptic transmission at Schaffer collateral-CA1 synapses in hippocampal slices in presence of GLYX-13. A: Time course of the effect of pressure ejection of Aβ(1-42) into stratum radiatum of field CA1 (Aβ injections; 12 psi/100 ms; filled circles; n=10) on basal synaptic transmission and LTP induced by high-frequency stimulus trains (3×100 Hz/500 ms), compared to vehicle (TFE) injection (open circles; n=8). B: Time course of the effect of pressure ejection of Aβ(1-42) into stratum radiatum of field CA1 in the presence of 1 μM Glyx-13 (Aβ injections; 12 psi/100 ms; filled circles; n=8) on basal synaptic transmission and LTP induced by high-frequency stimulus trains (3×100 Hz/500 ms), compared to vehicle (TFE) injection (open circles; n=8). C: Time course of the effect of pressure ejection of Aβ(1-42) into stratum radiatum of field CA1 in the presence of 1 μM D-cycloserine (Aβ injections; 12 psi/100 ms; filled circles; n=7) on basal synaptic transmission and LTP induced by high-frequency stimulus trains (3×100 Hz/500 ms), compared to vehicle (TFE) injection (open circles; n=8). D: Time course of the effect of pressure ejection of Aβ(1-42) into stratum radiatum of field CA1 in the presence of 100 μM D-Serine (Aβ injections; 12 psi/100 ms; filled circles; n=8) on basal synaptic transmission and LTP induced by high-frequency stimulus trains (3×100 Hz/500 ms), compared to vehicle (TFE) injection (open circles; n=8). Each point in A, B and C is mean±SEM normalized fEPSP slope.
# We pressure ejected hAβ in the absence or presence of Glyx-13, D-cycloserine or the full agonist D-serine, into the Schaffer collateral synaptic field in CA1 stratum radiatum of acute in vitro rat hippocampal slices and attempted to evoke LTP 30 min later. FIG. 5A illustrates that hAβ alone caused a significant reduction (˜20%) in the magnitude of LTP elicited by high-frequency Schaffer collateral stimulation.
# low-line rats = assay: Conspecific play induced pro-social USVs in low-line rats (autism model); assay type: in vivo, rat; details: adolescent male low-line rats, 50 mg/kg s.c. 15 min before testing, vs vehicle, P<0.05
# Description: FIG. 2 depicts Mean±SEM (A) rates of conspecific play induced pro-social USVs (frequency-modulated 50 kHz calls) in adolescent male low-line rats pretreated with vehicle (1 mg/ml sterile saline s.c.) or (B) GLYX-13 (50 mg/kg s.c.) […] before the start of testing using a within-subjects design. (C) Proportion of total conspecific play induced USVs that were monotonous (i.e., bandwidth less than 7 kHz; n=9 per group. *P<0.05 Fisher PLSD post hoc test, 2 tailed.
# Core symptoms of autism (1) deficits in social emotions and motivations, 2) communication problems, and 3) a high incidence of motor abnormalities, especially repetitive behaviors) can be modeled in part in animals using the following behavioral measures, respectively: (1) reduced time spent in social contact; (2) reduced rates of pro-social vocalizations, and (3) disrupted ultrasonic vocalization patterns.
# The proportion of total conspecific play induced USVs that were monotonous (i.e., bandwidth less than 7 kHz) is shown in FIG. 2C. n=9 per group. *P<0.05 Fisher PLSD post hoc test, 2 tailed.
# CA1 pyramidal neurons = assay: Protection against human b-amyloid (1-42) toxicity in organotypic hippocampal slice cultures (propidium fluorescence); assay type: cell-based; details: 5 μg/ml hAβ, 24 hr after application
# Text: FIG. 4 depicts delayed neuronal death produced by Aβ(1-42) in organotypic hippocampal slice cultures upon application of GLYX-13; Mean±SEM propidium fluorescence 24 hr after bath application of Aβ(1-42) alone, versus Aβ(1-42) in the presence of indicated concentrations (μg/ml) of Glyx-13 (*, […], Student's t-test compared to Aβ alone).
# To determine whether Glyx-13, by renormalizing activation of NMDA receptors, might protect against the toxicity of hAβ to susceptible neurons in a physiological network milieu, we compared the long-term effects of hAβ in the absence and presence of different concentrations of Glyx-13.
# HD 51 CAG and WT rats = assay: Huntington's disease model, serial operant reversal task, phase 3 pseudo-random testing; assay type: in vivo, rat; details: subcutaneously 20 minutes prior to task
# Description: HD 51 CAG and WT (wild type) rats are used in a Huntington's disease model study, testing cognition with serial operant reversal tasks. Rats are dosed according to the following schedule:
# The animals are first placed in an acquisition trial. The acquisition trial is an 8-hour testing period where the animal is reinforced with a sucrose food pellet for a “correct” lever press after a variable interval time of 30 seconds. This task requires the animals to learn which lever needs to be activated to gain reinforcement. The time taken to identify the “correct” lever is measured, as well as the number of reinforcers earned, percentage of “correct” lever presses, and errors made (incorrect lever presses). The acquisition trial is performed with access to water ad libidum. […]
# The testing session is conducted using a progressive FR schedule for 25 or 30 days. […] The response rate for the left and right lever is recorded, as well as the total number of lever presses for each side, the total number of lever presses combined for each side in a session, the percentage of “correct” lever presses (“correct” lever presses/left lever presses+right lever presses then multiplied by 100 to obtain a percentage), the total reinforcers earned, and the time to complete each session. The rats are given one day off before the second phase of testing begins, with only the weight of the rats being recorded. […]
# autistic individuals = details: cited from earlier work
smiles,measurement,setting,value
"C[C@@H](O)[C@H](N)C(=O)N1CCC[C@H]1C(=O)N1CCC[C@H]1C(=O)N[C@H](C(N)=O)[C@@H](C)O [GLYX-13, L-threonyl-L-prolyl-L-prolyl-L-threonine amide] (H-TPPT-NH2)",rescue of LTP after hAβ pressure ejection,[1]; 1 μM bath-applied,LTP was restored to normal control levels
same,proportion of total USVs that are monotonous (bandwidth less than 7 kHz),low-line rats,significantly decreased
same,rates of play inducing pro-social USVs (frequency-modulated 50 kHz calls),low-line rats,significantly increased
same,dose-response relation of neuroprotective potency,CA1 pyramidal neurons,U-shaped dose-response relation
same,percentage of correct lever presses vs saline injections,HD 51 CAG and WT rats; HD animals,higher percentage trends of correct lever presses
same,percentage of correct lever presses vs saline injections,HD 51 CAG and WT rats; WT animals,higher percentage trends of correct lever presses
Cc1nc2n(c(=O)c1CCN1CCC(c3noc4cc(F)ccc34)CC1)CCCC2 [risperidone],hyperactivity and irritability symptoms,autistic individuals; autism,significantly decrease
same,inappropriate speech or social withdrawal,autistic individuals; autism,little to no effect
same,side effects,autistic individuals; autism,significant weight gain and sedative side effects
N[C@@H]1CONC1=O [D-cycloserine],rescue of LTP after hAβ pressure ejection,[1]; 1 μM bath-applied,"neither the glycine site partial agonist D-cycloserine (1 μM, FIG. 5C, open circles) nor the full agonist D-serine (100M, FIG. 5D, open circles) was able to rescue LTP"
same,social withdrawal,"autistic individuals; autistic individuals (Posey et al., 2004)",significantly improved
N[C@H](CO)C(=O)O [D-serine],rescue of LTP after hAβ pressure ejection,[1],"nor the full agonist D-serine (100M, FIG. 5D, open circles) was able to rescue LTP"
